According to patent publication US20240262817A1, “QUINAZOLINE DERIVATIVES TARGETING R(CCUG) REPEATS IN MYOTONIC DYSTROPHY TYPE 2” (University of Florida Research Foundation, Incorporated, priority 2021, published 2024):

Key:
[1] = target: base-paired RNA that does not contain internal loops; experiment: Microscale thermophoresis (MST) affinity for base pair control RNA; assay type: binding
Experimental: Affinity measurements: Binding affinity measurements were performed via microscale thermophoresis (MST) on a Monolith NT.115 system (NanoTemperTechnologies) with Cy5-labeled (CCUG)12 (SEQ ID NO: 15) (5′-Cy5-GCG(CCUG)12CGC. SEQ ID NO:13; Dharmacon) and Cy5-labeled base pair control (BP; 5′-Cy5-GCG(CCUG)(GCAG)5CGC, SEQ ID NO:14; Dharmacon), which were deprotected according to the manufacturer's protocol and then desalted using a PD-10 column (GE LifeSciences) per the manufacturer's recommended procedure. RNA (5 nM) was prepared in 8 mM Na2HPO4, 185 mM NaCl, 1 mM EDTA and folded by heating at 60° C. for 5 min and slowly cooling to room temperature. Compound 1:1 dilution was prepared using 1×MST Buffer (8 mM Na2HPO4, 185 mM NaCl, 1 mM EDTA) and 0.1% (v/v) Tween-20 was added. After cooling the RNA solution was added to the compound solution (0.05% (v/v) Tween-20 final concentration). Samples were incubated for 30 min at room temperature and then loaded into standard capillaries (NanoTemper Technologies). […] Fluorescence was detected using excitation wavelengths of 605-645 nm and emission wavelengths of 680-685 nm. The resulting data were analyzed by thermophoresis analysis and fitted using a quadratic binding equation in the MST analysis software (NanoTemper Technologies). Dissociation constants were then determined using equation 3. […]

[2] = system: IR exon 11 alternative splicing in DM2 patient-derived fibroblasts; experiment: Rescue of IR exon 11 splicing via RT-PCR in DM2 fibroblasts; assay type: cell-based
Experimental: Cell lines and cell culture: Compounds were tested in two cell lines: (i) DM2 patient-derived fibroblasts (generous gift from University of Florida, Center for NeuroGenetics) and (ii) fibroblasts from a healthy donor (wild-type; WT GM07492; Coriell Institute). Cells were maintained at 37° ° C. with 5% CO2. DM2 fibroblasts were cultured in DMEM/high glucose (HyClone) supplemented with 20% FBS (Sigma) and 1% Antibiotic-Antimycotic solution (Corning). Wild-type fibroblasts were cultured in MEM (Corning) supplemented with 10% FBS, 1% Glutagro (Corning), and 1% Antibiotic-Antimycotic solution.
Evaluation of pre-mRNA splicing via RT-PCR: Pre-mRNA splicing was analyzed as previously described.^10 Briefly, cells were grown in 6-well plates and treated with the desired compound in growth medium at ˜40% confluency. After 48 h, the cells were lysed, and total RNA was harvested using a Zymo Quick RNA Miniprep Kit. Approximately 1 μg of total RNA was reverse transcribed using a qScript cDNA synthesis kit (20 μL of total reaction volume, Quanta BioSciences); 2 μL of the RT reaction was used for PCR using GoTaq DNA polymerase (Promega). RT-PCR products were observed after 35 cycles of 95° C. for 30 s, 58° C. for 30s, 72 °C for 1 min, and a final extension at 72° C. for 5 min. Products were separated on a 2% agarose gel (110 V for 1 h in 13TBE buffer), visualized by staining with ethidium bromide, and imaged using a Typhoon 9410 variable mode imager. Gels were quantified using ImageJ. Percent rescue was calculated by dividing the difference between treated and untreated DM2 samples by the difference between untreated DM2 and WT samples (Equation 2).

r(CCUG)12-MBNL1 complex = experiment: TR-FRET assay, disruption of pre-formed r(CCUG)12-MBNL1 complex; assay type: biochemical; conditions: in vitro, read-out: IC50 for disrupting an r(CCUG)12-MBNL1 complex
From the text: Of the 44 hits, 38 contained a similar substituted N2-phenylquinazoline-2,4-diamine core, while the other hits contained benzimidazoles and indazoles (Figure S2). Importantly, these 44 compounds are drug-like as they have similar physicochemical properties to the rest of the library and to known-drugs in Drug Bank (FIG. 2A). On average, the 44 hit compounds have a molecular weight of 327±35 g/mol, a cLogP of 3.2±0.9. TPSA of 76±15 Å, and 2.5±0.9 hydrogen bond donors. The in vitro potencies (IC50s) of the 44 compounds were then measured in the TR-FRET assay, affording seven compounds (1-7) with IC50s <50 μM (highlighted in red in FIGS. 2B & 2C).
In vitro IC50 measurements: IC50 measurements for disruption of r(CCUG)12-MBNL1 complex was completed using a previously reported TR-FRET assay with minor modifications.^23, 24 Briefly, 5′-biotinylated r(CCUG)12 (SEQ ID NO: 15) was folded in 1× Folding Buffer (20 mM HEPES, pH 7.5, 110 mM KCl, and 10 mM NaCl) at 60° C. for 5 min then cooled to room temperature. The buffer was adjusted to 1× Assay Buffer (20 mM HEPES, pH 7.5, 110 mM KCl, 10 mM NaCl, 2 mM MgCl2, 2 mM CaCl2), 5 mM DTT. 0.1% BSA, and 0.5% Tween-20).
Next, MBNL1-His6 was added, and the samples were incubated at room temperature for 15 min. […] The samples were incubated for 30 min at room temperature and added to a white 384-well plate, where TR-FRET was measured on a Molecular Devices SpectraMax M5 plate reader using an excitation wavelength of 345-nm and a 420-nm cutoff. The ratios of fluorescence intensity at 545 and 665 nm were calculated, and ratios in the absence of a compound and in the absence of RNA were used to calculate percent disruption. […]
[formula] • where y is ratio of fluorescence intensities at 545 nm and 665 nm (F545/F665), x is the concentration of a compound, B is F545/F665 value at max FRET effect (solution has RNA and protein but no compound added); A is F545/F665 value at min FRET effect (solution has antibodies but no RNA, protein, or compound); and the IC50 is the concentration of a compound where half of the protein is displaced by a compound.

Kd [1]: > 20000 nM
binding to base-paired RNA that does not contain internal loops [1]: no binding was observed
IC50 (r(CCUG)12-MBNL1 complex): 2200 ± 500 nM
SMILES: Cc1ccc2nc(Nc3ccc4nc(C)sc4c3)nc(NCCCO)c2c1 [Compound 63, 3-((6-methyl-2-((2-methylbenzo[d]thiazol-6-yl)amino)quinazolin-4-yl)amino)propan-1-ol]
rescue of IR exon 11 splicing ([2]; at 1 μM): ~30%
rescue of IR splicing ([2]; at 1 μM dose, p=0.026): 33±5
improvement of IR splicing ([2]; at 5 μM): significantly improved IR splicing
